Assay results published in US10946024B2, “Method for treating cancer” (Epizyme, Inc., priority 2014, dated 2021).

How the values were obtained:
[1] = Plasma concentrations in HS-SY-II xenograft model (LC/MS/MS); format: in vivo, mice; conditions: oral twice daily for 7 days; 5 minutes before and 3 hours after the last dose
Protocol: (§1) HS-SY-II cells were harvested during mid-log phase growth, and resuspended in Hank balanced salt solution with 50% Matrigel (BD Biosciences). Balb/C-nu mice (Charles River Laboratories Japan) received 1×10^7 cells (0.1 mL cell suspension) subcutaneously in the right flank. Mice carrying tumors of approximately 200 mm^3 (31 days after injection) were sorted into treatment groups with similar mean tumor volumes. Compound A or vehicle (0.5% MC+0.1% Tween-80 in water) was administered at the indicated doses on twice a day for 7 days by oral gavage. Each dose was delivered in a volume of 0.2 mL/20 g mouse (10 mL/kg), and adjusted for the last recorded weight of individual animals. Peripheral blood samples were collected at approximately 5 minutes before and 3 hours after the last dose from Compound A-treated mice. After obtaining plasma samples by centrifugation, the analysis for plasma concentrations of Compound A was conducted by the liquid chromatography-tandem mass spectrometry (LC/MS/MS) method. The UPLC system (Acquity, Waters) equipped with a mass spectrometer (Quattro premier, MICROMASS) was used for quantification of Compound A. The concentrations are plotted (n=5) in FIG. 7A. Each bar represents a mean of plasma concentration in each group.

[2] = tested on: H3K27me3 in HS-SY-II xenograft; test: H3K27me3 in tumor of HS-SY-II xenograft, 7 days twice daily oral dosing (ELISA); format: in vivo, mice; conditions: for H3K27me3 in tumor, Mean 2 (fold change to vehicle) / H3K27me3 in tumor, Mean Diff. vehicle vs. treated: 7 days; for H3K27me3 in tumor, Dunnett's test Significant?: alpha 0.05
Protocol: as §1
For FIG. 10D, tumors were snap-frozen in liquid nitrogen. Frozen tumor samples were cut into a 20 mg pieces and placed in 500 μL of ice cold nuclear extraction buffer (10 mM Tris-HCl, 10 mM MgCl2, 25 mM KCl, 1% Triton X-100, 8.6% Sucrose, plus 1× Halt Protease inhibitor cocktail (1861281, Thermo Scientific)) and homogenized with a handy micro homogenizer. Nuclei were collected by centrifugation at 600 g for 5 minutes at 4° C. and washed once with ice cold PBS. Supernatant was removed and histones extracted for one hour with […] 0.4 N cold sulfuric acid. Extracts were clarified by centrifugation at 10,000 g for 10 minutes at 4° C. and transferred to a fresh microcentrifuge tube containing 1 mL of ice cold acetone. Histones were precipitated at −20° C. for overnight, pelleted by centrifugation at 10,000 g for 10 minutes and resuspended in 100 μl of water. Histones were quantified using the BCA protein assay (23225, Pierce). The diluted histones were coated on Immulon 4HBX plates (3855, Thermo Scientific) overnight and ELISA was performed. Briefly, after blocking with PBS containing 0.05% Tween 20 and 2% bovine serum albumin (BSA), the plates were incubated with H3K27me3 antibody (#9733, Cell Signaling Technology) or total histone H3 antibody (AB1791, Abcam). The plates were further incubated with horseradish peroxidase conjugated anti-rabbit IgG (#7074, Cell Signaling Technology), followed by incubated with TMB substrate (TMBS-0100-01, BioFx Laboratories). Subsequently, the developed colors in the wells were measured using a plate spectrophotometer (SpectraMax 250, Molecular Devices) at 450 nm (reference wavelength 650 nm). The H3K27me3 levels were adjusted to total histone H3, and expressed as fold changes to vehicle control. The values are plotted (n=6) in FIG. 10D. Each bar represents a mean of the values in each group. […] Histones were extracted and quantified, and the levels of H3K27me3 were analyzed as described above. Trimethylation levels of H3K27 in the tumor are plotted (n=5) in FIG. 7B. Each bar represents a mean±SEM of the trimethylation level in each group.

[3] = tested on: ATF3, EGR1, CDKN2A expression in HS-SY-II cells; test: Gene expression changes in vitro by RT-PCR, normalized to GAPDH; format: cell-based, human; design: key to ATF3 expression change, significance 0 uM vs. / EGR1 expression change, significance 0 uM vs. / CDKN2A expression change, significance 0 uM vs.: *: Asterisks mean significant changes compared to levels of 0 μM-treated groups.; **: Asterisks mean significant changes compared to levels of 0 μM-treated groups.; ***: Asterisks mean significant changes compared to levels of 0 μM-treated groups.; ****: Asterisks mean significant changes compared to levels of 0 μM-treated groups
Protocol: (§2) HS-SY-II and SW982 cells were treated with EZH2 inhibitors (Compound A or EPZ-011989) and collected at the indicated time points. Total RNA isolation and cDNA synthesis were performed using the TaqMan Gene Expression Cells-to-CT kit (4399002, Life technologies) according to the manufacturer's protocol. ATF3, EGR1, CDKN2A and GAPDH expression were analyzed by using the TaqMan Gene Expression Assays (Life technologies, 4331182) and the TaqMan Probes (Hs00231069_m1, Hs00152928_m1, Hs00233365_m1, and Hs99999905_m1, respectively).

[4] = tested on: ATF3, EGR1 expression in SW982 cells; test: as above; format: cell-based, human; conditions: SW982 in vitro culture
Protocol: as §2

For `CCN(c1cc(-c2ccc(CN3CCOCC3)cc2)cc(C(=O)NCc2c(C)cc(C)[nH]c2=O)c1C)C1CCOCC1` [Compound A], the plasma concentrations [1] was “Dose dependent exposure”, the “H3K27me3 in tumor, Dunnett's test Summary” value ([2]; 125 mg/kg) was “* * *” and the “H3K27me3 in tumor, Mean 2 (fold change to vehicle)” value (“H3K27me3 … (fold change to vehicle)” below) ([2]; 125 mg/kg oral twice daily) was 0.7. For the same compound, the “H3K27me3 in tumor, Mean Diff. vehicle vs. treated” value ([2]; 125 mg/kg oral twice daily) was 0.3, the “H3K27me3 in tumor, Dunnett's test Significant?” value ([2]; 125 mg/kg) was “Yes” and the “H3K27me3 in tumor, Dunnett's test Summary” value ([2]; 250 mg/kg) was “* * *”. For the same compound, the “H3K27me3 … (fold change to vehicle)” value ([2]; 250 mg/kg oral twice daily) was 0.55, the “H3K27me3 in tumor, Mean Diff. vehicle vs. treated” value ([2]; 250 mg/kg oral twice daily) was 0.45 and the “H3K27me3 in tumor, Dunnett's test Significant?” value ([2]; 250 mg/kg) was “Yes”. For the same compound, the “H3K27me3 in tumor, Dunnett's test Summary” value ([2]; 500 mg/kg) was “* * *”, the “H3K27me3 … (fold change to vehicle)” value ([2]; 500 mg/kg oral twice daily) was 0.304 and the “H3K27me3 in tumor, Mean Diff. vehicle vs. treated” value ([2]; 500 mg/kg oral twice daily) was 0.696. The “H3K27me3 in tumor, Dunnett's test Significant?” value ([2]; 500 mg/kg) was “Yes”, the “H3K27me3 levels in tumor tissues” value ([2]; oral twice daily for 7 days) was “dose dependent decrease” and the “ATF3 and EGR1 expression” value ([3]; HS-SY-II in vitro culture) was “upregulated”. For the same compound, the CDKN2A expression ([3]; HS-SY-II in vitro culture) was “Dose- and time-dependent CDKN2A upregulation”, the “CDKN2A expression change, significance 0 uM vs.” value ([3]; HS-SY-II, 1 uM, day 2) was “**” and the “ATF3 expression change, significance 0 uM vs.” value ([3]; HS-SY-II, 1 uM, day 4) was “*”. For the same compound, the “CDKN2A expression change, significance 0 uM vs.” value ([3]; HS-SY-II, 1 uM, day 4) was “****”, the “ATF3 expression change, significance 0 uM vs.” value ([3]; HS-SY-II, 1 uM, day 7) was “**” and the “CDKN2A expression change, significance 0 uM vs.” value ([3]; HS-SY-II, 1 uM, day 7) was “****”. For the same compound, the “EGR1 expression change, significance 0 uM vs.” value ([3]; HS-SY-II, 1 uM, day 7) was “**” and the “ATF3 and EGR1 expression” value [4] was “not in SW982”.
